Assay results as given in ChEMBL document CHEMBL1201862, “PubChem BioAssay data set” (2004).
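Cultured in 96-well plates, cells were exposed to test compound for 48 hours across five concentrations. Abbreviation: GI50, concentration required for 50% inhibition of growth.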 Calls of active or inactive are those of the source. Rule as the data show it: active = GI50 up to about 1.1 µM and inactive = higher.

Key:
Assay in all cases: DTP human tumour cell line panel, 48 h
786-0 = system: 786-0
A498 = system: A498
ACHN = system: ACHN
COLO 205 = system: COLO 205
HL-60 = system: HL-60
IGROV-1 = system: IGROV-1
K562 = system: K562
M19-MEL = system: M19-MEL
MOLT-4 = system: MOLT-4
NCI-H23 = system: NCI-H23
OVCAR-4 = system: OVCAR-4
SF-539 = system: SF-539
SK-MEL-2 = system: SK-MEL-2
SR = system: SR
OVCAR-3 = system: OVCAR-3
TK-10 = system: TK-10
NCI-H226 = system: NCI-H226
BT-549 = system: BT-549
MCF7 = system: MCF7
MDA-N = system: MDA-N

| SMILES | GI50 (786-0) | GI50 (A498) | GI50 (ACHN) | GI50 (COLO 205) | GI50 (HL-60) | GI50 (IGROV-1) | GI50 (K562) | GI50 (M19-MEL) | GI50 (MOLT-4) | GI50 (NCI-H23) | GI50 (OVCAR-4) | GI50 (SF-539) | GI50 (SK-MEL-2) | GI50 (SR) | GI50 (OVCAR-3) | GI50 (TK-10) | GI50 (NCI-H226) | GI50 (BT-549) | GI50 (MCF7) | GI50 (MDA-N) |
| --- | --- | --- | --- | --- | --- | --- | --- | --- | --- | --- | --- | --- | --- | --- | --- | --- | --- | --- | --- | --- |
| O=C1OC(c2ccc(Cl)c3ccccc23)c2ccccc21 (stereo not given) | 67.6 µM (inactive) | > 100 µM (inactive) | > 100 µM (inactive) | > 100 µM (inactive) | > 100 µM (inactive) | > 100 µM (inactive) | 55.7 µM (inactive) | > 100 µM (inactive) | 77.6 µM (inactive) | > 100 µM (inactive) | 63.5 µM (inactive) | > 100 µM (inactive) | > 100 µM (inactive) | > 100 µM (inactive) | – | – | – | – | – | – |
| c1ccc(CN(Cn2cccn2)Cn2cccn2)nc1 | > 100 µM (inactive) | > 100 µM (inactive) | > 100 µM (inactive) | > 100 µM (inactive) | 47.8 µM (inactive) | – | > 100 µM (inactive) | > 100 µM (inactive) | > 100 µM (inactive) | > 100 µM (inactive) | > 100 µM (inactive) | – | > 100 µM (inactive) | > 100 µM (inactive) | > 100 µM (inactive) | > 100 µM (inactive) | – | – | – | – |
| CCOc1ccc(/C=C(\Cl)c2ccc(OC)c(OC)c2)cc1 | > 100 µM (inactive) | 27.6 µM (inactive) | 36.4 µM (inactive) | 48.2 µM (inactive) | 21.8 µM (inactive) | 84.9 µM (inactive) | 30.8 µM (inactive) | 37.4 µM (inactive) | 26.2 µM (inactive) | 19.3 µM (inactive) | 33.3 µM (inactive) | > 100 µM (inactive) | – | 12.2 µM (inactive) | – | – | 33.1 µM (inactive) | – | – | – |
| CC1=C2C(=O)C(C)(C)C=C2C(=O)[C@](C)(O)C12CC2 [DEHYDROILLUDIN M] | 0.537 µM (active) | > 1 µM (active) | 0.552 µM (active) | > 1 µM (active) | 0.247 µM (active) | > 1 µM (active) | > 1 µM (active) | > 0.953 µM (active) | > 1 µM (active) | 0.499 µM (active) | 0.766 µM (active) | > 1 µM (active) | 0.614 µM (active) | 0.61 µM (active) | > 1 µM (active) | > 1 µM (active) | > 1 µM (active) | – | – | – |
| N#CCCN(CCC#N)c1ccc(/C=C(/NC(=O)c2cc([N+](=O)[O-])ccc2Cl)C(=O)N=[N+]=[N-])cc1 | > 100 µM (inactive) | > 100 µM (inactive) | > 100 µM (inactive) | > 100 µM (inactive) | > 100 µM (inactive) | > 100 µM (inactive) | > 100 µM (inactive) | > 100 µM (inactive) | > 100 µM (inactive) | > 100 µM (inactive) | > 100 µM (inactive) | > 100 µM (inactive) | > 100 µM (inactive) | > 100 µM (inactive) | > 100 µM (inactive) | > 100 µM (inactive) | > 100 µM (inactive) | – | – | – |
| CCN(CC)CCNc1ccc2nnn3c4ccc(C)cc4c(=O)c1c23 | 5.66 µM (inactive) | 15.5 µM (inactive) | 5.45 µM (inactive) | 5.87 µM (inactive) | 3.9 µM (inactive) | 10.4 µM (inactive) | 8.24 µM (inactive) | 14.6 µM (inactive) | 3.07 µM (inactive) | 11.7 µM (inactive) | 12.1 µM (inactive) | 6.14 µM (inactive) | 13.7 µM (inactive) | 3.37 µM (inactive) | 13.2 µM (inactive) | 12.2 µM (inactive) | 10.8 µM (inactive) | – | – | – |
| COc1cc2c(cc1OC)C(CC(=O)NN=C(C)C)NCC2 (stereo not given) | > 100 µM (inactive) | > 100 µM (inactive) | > 100 µM (inactive) | > 100 µM (inactive) | > 100 µM (inactive) | > 100 µM (inactive) | > 100 µM (inactive) | > 100 µM (inactive) | > 100 µM (inactive) | > 100 µM (inactive) | > 100 µM (inactive) | > 100 µM (inactive) | > 100 µM (inactive) | > 100 µM (inactive) | > 100 µM (inactive) | > 100 µM (inactive) | > 100 µM (inactive) | – | – | – |
| COc1cc2cc3c4c(cc(OC)c(OC)c4c2cc1OC)CCN3C(=O)OCCBr | 55.8 µM (inactive) | 19.8 µM (inactive) | 50.9 µM (inactive) | 78 µM (inactive) | 39.1 µM (inactive) | > 100 µM (inactive) | – | 81.8 µM (inactive) | 27.8 µM (inactive) | 81.7 µM (inactive) | – | 22.4 µM (inactive) | > 100 µM (inactive) | 18.7 µM (inactive) | > 100 µM (inactive) | > 100 µM (inactive) | 0.259 µM (active) | – | – | – |
| CC(C)(C)C1CCC(CI)(N=[N+]=[N-])CC1 (stereo not given) | > 100 µM (inactive) | > 100 µM (inactive) | > 100 µM (inactive) | > 100 µM (inactive) | 42.8 µM (inactive) | > 100 µM (inactive) | > 100 µM (inactive) | 99.1 µM (inactive) | > 100 µM (inactive) | > 100 µM (inactive) | > 100 µM (inactive) | > 100 µM (inactive) | 61.1 µM (inactive) | 33.7 µM (inactive) | > 100 µM (inactive) | > 100 µM (inactive) | > 100 µM (inactive) | – | – | – |
| O=C1C2C(C(=O)N1c1ccccc1)C1(Br)c3ccccc3C2(Br)C2C(=O)N(c3ccccc3)C(=O)C21 (stereo not given) | 20.5 µM (inactive) | 21.9 µM (inactive) | 18.1 µM (inactive) | > 31.6 µM (inactive) | > 31.6 µM (inactive) | > 31.6 µM (inactive) | 6.27 µM (inactive) | > 31.6 µM (inactive) | 20.6 µM (inactive) | 17.6 µM (inactive) | 7.21 µM (inactive) | 27.2 µM (inactive) | 31.4 µM (inactive) | > 10 µM (inactive) | > 31.6 µM (inactive) | > 31.6 µM (inactive) | > 31.6 µM (inactive) | – | – | – |
| COc1ccc(/C=C/C(=O)c2sc(-n3nc(-c4ccccc4)cc3-c3ccccc3)nc2C)cc1OC | 36.4 µM (inactive) | – | 49.8 µM (inactive) | 36.6 µM (inactive) | 25.2 µM (inactive) | 24.3 µM (inactive) | 23.6 µM (inactive) | 42.4 µM (inactive) | 20.3 µM (inactive) | 34.9 µM (inactive) | 38.5 µM (inactive) | 26.7 µM (inactive) | 62.1 µM (inactive) | 24.9 µM (inactive) | 20.6 µM (inactive) | 62.5 µM (inactive) | 31.6 µM (inactive) | – | – | – |
| Nc1ccccc1C(=O)C(Br)C(Br)c1ccc2c(c1)OCO2 (stereo not given) | 31 µM (inactive) | 24.4 µM (inactive) | 18.2 µM (inactive) | 14.2 µM (inactive) | 40.7 µM (inactive) | 28.6 µM (inactive) | 31.1 µM (inactive) | 17.8 µM (inactive) | 25.1 µM (inactive) | 19.9 µM (inactive) | 27.4 µM (inactive) | 18.4 µM (inactive) | 16.9 µM (inactive) | 46.1 µM (inactive) | 16.7 µM (inactive) | 27.4 µM (inactive) | 20 µM (inactive) | – | – | – |
| O=C1c2c(O)cccc2C(C(=O)CCCC(=O)C2c3cccc(O)c3C(=O)c3c(O)cccc32)c2cccc(O)c21 | 2.73 µM (inactive) | 0.957 µM (active) | 0.378 µM (active) | 0.34 µM (active) | 0.0824 µM (active) | 0.415 µM (active) | 0.11 µM (active) | 0.151 µM (active) | 0.966 µM (active) | 0.27 µM (active) | 0.0867 µM (active) | 0.179 µM (active) | 0.322 µM (active) | 0.321 µM (active) | 0.158 µM (active) | 0.547 µM (active) | 0.456 µM (active) | 0.524 µM (active) | 0.598 µM (active) | 0.442 µM (active) |
| NS(=O)(=O)OCCCCCCCOS(N)(=O)=O | 144 µM (inactive) | 377 µM (inactive) | 64.9 µM (inactive) | 394 µM (inactive) | 33 µM (inactive) | 376 µM (inactive) | 347 µM (inactive) | 383 µM (inactive) | 24.2 µM (inactive) | 245 µM (inactive) | 409 µM (inactive) | 138 µM (inactive) | 364 µM (inactive) | 31.6 µM (inactive) | 361 µM (inactive) | 649 µM (inactive) | 292 µM (inactive) | 151 µM (inactive) | 101 µM (inactive) | 392 µM (inactive) |
| COc1ccc2c(c1)CCC(OS(=O)(=O)CC13CCC(CC1=O)C3(C)C)C2=O (stereo not given) | 18.8 µM (inactive) | 14.8 µM (inactive) | 35.8 µM (inactive) | 33.7 µM (inactive) | 18.5 µM (inactive) | – | 24.3 µM (inactive) | 34.2 µM (inactive) | 20.8 µM (inactive) | 17.3 µM (inactive) | 43.1 µM (inactive) | 21.5 µM (inactive) | 23.9 µM (inactive) | 24.9 µM (inactive) | 25.7 µM (inactive) | 39.6 µM (inactive) | 29 µM (inactive) | – | – | – |
| COc1ccccc1NC(=O)CC(=O)n1nc(C)c(/N=N/c2ccccc2F)c1C | 76.6 µM (inactive) | > 100 µM (inactive) | > 100 µM (inactive) | > 100 µM (inactive) | > 100 µM (inactive) | > 100 µM (inactive) | > 31.6 µM (inactive) | > 100 µM (inactive) | > 31.6 µM (inactive) | > 96.2 µM (inactive) | > 100 µM (inactive) | 21.5 µM (inactive) | > 100 µM (inactive) | 71.8 µM (inactive) | > 100 µM (inactive) | > 100 µM (inactive) | 45.1 µM (inactive) | – | – | – |
